Laboratory results published in patent US6211196A, “Benzyloxy-substituted, fused N-heterocycles, processes for their preparation, and their use as bradykinin receptor antagonists” (Aventis Pharma Deutschland GmbH, priority 1997, dated 2001).

Columns and labels:
bradykinin β2 receptor = molecular target: T1, bradykinin β2 receptor (Cavia porcellus, UniProt O70526); assay: Ki on membrane preparations of guinea-pig ileum, 3H-bradykinin competition; type: binding; conditions: 3H-bradykinin 0.25 to 0.3 nmol/l, guinea-pig ileum membranes, room temperature, 60 minutes, pH 6.8
T1 construct: membrane preparations of the guinea-pig ileum; from tissue; host or cells: guinea-pig ileum membranes
T1 sequence (O70526 1-372): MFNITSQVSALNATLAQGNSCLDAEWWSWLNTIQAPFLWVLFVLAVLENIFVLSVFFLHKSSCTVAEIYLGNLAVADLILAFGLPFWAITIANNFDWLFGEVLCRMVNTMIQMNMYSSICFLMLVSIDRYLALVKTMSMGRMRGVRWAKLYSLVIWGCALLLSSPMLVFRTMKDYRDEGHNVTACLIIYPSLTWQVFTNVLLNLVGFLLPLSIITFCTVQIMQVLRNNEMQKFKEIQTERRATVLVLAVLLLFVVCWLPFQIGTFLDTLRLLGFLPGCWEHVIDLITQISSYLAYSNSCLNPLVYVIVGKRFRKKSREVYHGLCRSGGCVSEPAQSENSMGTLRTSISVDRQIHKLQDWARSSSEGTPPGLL
Description: B. Innis et al., Proc. Natl. Acad. Sci. USA, 17 (1981) 2630) according to the following procedure: […] Ligand: ^3 H-BRADYKININ (from NEN Du Pont) Both buffers are adjusted to pH 6.8 using 5 molar NaOH. Guinea-pig ilea are grossly freed from intestinal contents by careful brushing and cleaned in 0.9% strength NaCl solution. The pieces of ilea about 2 cm long are transferred to ice-cold TES buffer (about 1 g/10 ml) and homogenized in an ice bath for about 30 sec. using an Ultraturrax. The homogenate is then filtered through three layers of gauze, and the filtrate is centrifuged at 50,000 g/10 minutes. The supernatant is discarded, and the pellet is rehomogenized in the same volume of TES buffer and centrifuged again at 50,000 g/10 minutes. The pellet is rehomogenized in incubation buffer (about 1 g/5 ml) and frozen at -70° C. in cryotubes in 2 ml portions. The protein concentration of the finished membrane suspension is determined according to LOWRY and should be about 15 μg/100 μl. All incubations are carried out at room temperature for 60 minutes on microtiter plates (96×300 μl) in a 200 μl volume. All mixtures are in incubation buffer. To this end, 50 μl of the radioligand, 50 μl of the preparation to be tested, and 100 μl of the membrane suspension are pipetted into the hollows of the microtiter plate in succession. Nonspecific binding: for each concentration of the radioactive ligand, the nonspecific binding must be determined. […] In this test, HOE 140 (10 μmol/l) is used. […] The reaction is started by the addition of 100 μl of the membrane suspension. Here a fixed quantity of the radioactive ligand (0.25 to 0.3 nmol/l of ^3 H-bradykinin) and various concentrations of the unlabeled agonists or antagonists are employed. 50 μl of the preparations or standard to be tested in the concentrations 10^-5 to 10^-10 mol/l are added to 50 μl in each case of the ^3 H-bradykinin solution, and the reaction is started by addition of 100 μl of membrane suspension. Triplicate determinations also are carried out in this test, and three samples are incubated with 10 μmol/l of HOE 140 to determine the nonspecific binding. The preparations to be tested for competition are completely dissolved in a concentration of 1 mmol/l in dimethyl sulfoxide (DMSO), and then further diluted with DMSO. This solution is then diluted 1:25 with incubation buffer. […] The still moist filters are punched out into mini-scintillation tubes, and these are filled with 3 ml of scintillator. After a soaking time of about 12 hours, the samples are briefly shaken and measured in a beta-counter. […] If a displacement of the radioligand of 50% or more is detectable at the highest concentration, a complete analysis (competition experiment) is carried out using at least 8 concentrations. Assessment is carried out by means of the LIGAND program package (McPherson, Minson & Rodbard, marketed by: Elsevier-BIOSOFT), which carries out the necessary calculations for the determination of IC50 and Ki values. This program moreover carries out graphic presentations of the saturation or displacement curves as well as the SCATCHARD plot, HILL plot, or HOFSTEE plot.

[1] = test system: bradykinin-induced contraction of the guinea-pig ileum; assay: bradykinin-induced contraction of the guinea-pig ileum; conditions: isolated guinea-pig ileum, bradykinin 4×10^-8 mol/l, antagonist action time 10 min, 37° C.
From the text: In addition, for the determination of the bradykinin-antagonistic action of the compounds of fomula (I), their effect on the bradykinin-induced contraction of the guinea-pig ileum can be measured according to the following protocol:
Guinea-pigs about 300 g in weight (Morioth strain, .male..female.) are killed by a blow to the neck and exsanguinated. The ileum is dissected out in a length of about 20 cm, rinsed with Tyrode solution (Record Syringe), and thus freed from the intestinal contents. It is then divided into sections 1.5 cm long. These are fixed in organ baths of 10 ml capacity, which are filled with Tyrode solution, and connected to extension-measuring strips (isometric contraction measurement). The preload is 1 g. The Tyrode solution is warmed to 37° C. in a water bath and bubbled through with compressed air. After an interval of 30 min, the experiment is begun. After recording the biological zero line, bradykinin in a final concentration of 4×10^-8 mol/l is added per organ bath, and the […] is recorded. Rinsing with Tyrode solution is then carried out for three min., and after a break of 20 min., bradykinin is again added. The maximum of the contraction is achieved (control). Rinse again, break. […] The experiment is recorded on a pen recorder.
Thus, the compounds of Examples 6 and 20, for example, have the following IC50 values determined by the above procedure: […]

| SMILES | Ki (bradykinin β2 receptor) [nM] | IC50 [1] [nM] |
| --- | --- | --- |
| CCNC(=O)NCC(=O)N(C)c1ccc(Cl)c(COc2cccc3ccc(C)nc23)c1C#N [Example 1, 8-[6-Chloro-2-cyano-3-(N-ethylaminocarbonylglycyl-N-methyl)amino-benzyloxy]-2-methylquinoline] | 8.3 |  |
| COc1c(N(C)C(=O)CNC(=O)/C=C/c2ccc(C(F)(F)F)cc2)ccc(SC)c1COc1cccc2ccc(C)nc12 [Example 16] | 17.4 |  |
| COC(=O)CCCCC(=O)NCC(=O)N(C)c1ccc(OC)c(COc2cccc3ccc(C)nc23)c1SC [Example 20, 8-[6-Methoxy-2-methylthio-3-(N-5-methoxycarbonylpentanoylglycyl-N-methyl)aminobenzyloxy]-2-methylquinoline] | 5.4 | 56 |
| CSc1ccc(N(C)C(=O)CNC(=O)/C=C/c2ccc(NC(C)=O)nc2)c(SC)c1COc1cccc2ccc(C)nc12 [Example 24, 8-[2,6-Dithiomethyl-3-(3-(6-acetylaminopyridin-3-yl)acryloylglycyl-N-methyl)aminobenzyloxy]-2-methylquinoline] | 1 |  |

More lines, in order of falling Ki (bradykinin β2 receptor), values ahead:

| Ki (bradykinin β2 receptor) [nM] | IC50 [1] [nM] | SMILES |
| --- | --- | --- |
| 6 |  | CCNC(=O)NCC(=O)N(C)c1ccc(OC)c(COc2cccc3ccc(C)nc23)c1C#N [Example 9, N-[2-Cyano-4-methoxy-3-(2-methylquinolin-8-yloxymethyl)phenyl]-2-(3-ethylureido)-N-methylacetamide] |
| 0.1 | 350 | Cc1ccc2cccc(OCc3c(Cl)ccc(N(C)C(=O)CNC(=O)NCCCCN)c3C#N)c2n1 [Example 6, 8-[6-Chloro-2-cyano-3-[N-(4-aminobutylaminocarbonylglycyl-N-methyl]aminobenzyloxy]-2-methylquinoline bistrifluoroacetate] |
